From paper PMC7265429, “Characterization of a new small-molecule inhibitor of HDAC6 in glioblastoma” (Cell Death & Disease, 2020)

Test system: GNS166 cells
Assay: Microarray whole-transcriptome gene expression analysis
Format: cell-based, human
Experimental: Whole-transcriptome analysis was performed from 300 ng of RNA using HuGene-2_0-st-v1 expression array (Affymetrix), which covers 48,226 transcripts. Raw data were first checked for quality purposes through the Affymetrix® Expression Console™ Software v1.4.1 and TAC software v4.0. Then, data were normalized using the Robust Multi-array Average (RMA) and analyzed by Limma tool. Probesets with FDR-corrected p-values smaller than 0.05 were selected. Functional enrichment on Gene Ontology (GO) biological processes was performed on a smaller subset of the differentially expressed genes (corrected p-value < 0.001) by means of Broad Institute GSEA. […] The data that support this study have been deposited in NCBI´s Gene Expression Omnibus and are accessible through GEO series accession number GSE143887.

[1] = sheet DMSO-SAHA_DOWN, microarray

In the case of `O=C(CCCCCCC(=O)Nc1ccccc1)NO` [SAHA, Suberoylanilide hydroxamic acid], the “logFC ZNF85” value (DMSO vs SAHA, downregulated, transcript TC1900007502.hg.1) is reported as -1.299, the “logFC ZNF254” value (DMSO vs SAHA, downregulated, transcript TC1900007622.hg.1) is reported as -1.436 and the “logFC AXL” value (DMSO vs SAHA, downregulated, transcript TC1900008143.hg.1) is reported as -2.335. The “logFC KEAP1” value (DMSO vs SAHA, downregulated, transcript TC1900009630.hg.1) was -1.437, the “logFC EMP3” value (DMSO vs SAHA, downregulated, transcript TC1900011774.hg.1) was -1.798 and the “logFC UBE2C” value (DMSO vs SAHA, downregulated, transcript TC2000007503.hg.1) was -1.95. The “logFC JPH2” value (DMSO vs SAHA, downregulated, transcript TC2000009178.hg.1) was -1.382, the “logFC ZFP64” value (DMSO vs SAHA, downregulated, transcript TC2000009469.hg.1) was -1.251 and the “logFC AURKA” value (DMSO vs SAHA, downregulated, transcript TC2000009550.hg.1) was -1.686. The “logFC UCKL1” value (DMSO vs SAHA, downregulated, transcript TC2000009848.hg.1) was -1.222, the “logFC MX1” value (DMSO vs SAHA, downregulated, transcript TC2100007208.hg.1) was -1.686 and the “logFC COL6A1” value (DMSO vs SAHA, downregulated, transcript TC2100007446.hg.1) was -1.16. For the same compound, the “logFC SUMO3” value (DMSO vs SAHA, downregulated, transcript TC2100008385.hg.1) was -1.431, the “logFC TRIOBP” value (DMSO vs SAHA, downregulated, transcript TC2200007313.hg.1) was -1.456 and the “logFC MICALL1” value (DMSO vs SAHA, downregulated, transcript TC2200007324.hg.1) was -1.322. The “logFC ZC3H7B” value (DMSO vs SAHA, downregulated, transcript TC2200007467.hg.1) was -1.779, the “logFC GTSE1” value (DMSO vs SAHA, downregulated, transcript TC2200007662.hg.1) was -1.615 and the “logFC TXNRD2” value (DMSO vs SAHA, downregulated, transcript TC2200008001.hg.1) was -1.47. The “logFC PATZ1” value (DMSO vs SAHA, downregulated, transcript TC2200008477.hg.1) was -1.5057, the “logFC NDUFA6” value (DMSO vs SAHA, downregulated, transcript TC2200008859.hg.1) was -1.148 and the “logFC APOBEC3B” value (DMSO vs SAHA, downregulated, transcript TC2200009270.hg.1) was -1.723. The “logFC APOBEC3C” value (DMSO vs SAHA, downregulated, transcript TC2200009271.hg.1) was -1.685, the “logFC RBX1” value (DMSO vs SAHA, downregulated, transcript TC2200009278.hg.1) was -1.233 and the “logFC TRMU” value (DMSO vs SAHA, downregulated, transcript TC2200009288.hg.1) was -1.487. The “logFC KIF15” value (DMSO vs SAHA, downregulated, transcript TSUnmapped00000255.hg.1) was -1.857, the “logFC KIF15” value (DMSO vs SAHA, downregulated, transcript TSUnmapped00000627.hg.1) was -1.713 and the “logFC AES (transcript TC1900009272.hg.1)” value [1] was -1.167. The “logFC APOBEC3G (transcript TC2200009274.hg.1)” value [1] was -1.162, the “logFC ATF7 (transcript TC1200010809.hg.1)” value [1] was -0.8995 and the “logFC ATG4D (transcript TC1900006989.hg.1)” value [1] was -0.9381. For the same compound, the “logFC ATP5G2 (transcript TC1200012798.hg.1)” value [1] was -0.8974, the “logFC ATXN10 (transcript TC2200007626.hg.1)” value [1] was -0.8219 and the “logFC AVEN (transcript TC1500008971.hg.1)” value [1] was -1.4. For the same compound, the “logFC B4GALT2 (transcript TC0100008082.hg.1)” value [1] was -1.044, the “logFC BORCS7-ASMT (transcript TC1000012497.hg.1)” value [1] was -1.471 and the “logFC C1QBP (transcript TC1700012341.hg.1)” value [1] was -0.864. For the same compound, the “logFC CARD8 (transcript TC1900011061.hg.1)” value [1] was -1.473, the “logFC CD109 (transcript TC0600008539.hg.1)” value [1] was -1.058 and the “logFC CDC25B (transcript TC2000006559.hg.1)” value [1] was -1.166. For the same compound, the “logFC COMT (transcript TC2200006623.hg.1)” value [1] was -1.056, the “logFC CXCL14 (transcript TC0500012107.hg.1)” value [1] was -1.597 and the “logFC DENND2A (transcript TC0700012813.hg.1)” value [1] was -1.223. For the same compound, the “logFC EOGT (transcript TC0300011448.hg.1)” value [1] was -1.387, the “logFC FAM65B (transcript TC0600014247.hg.1)” value [1] was -1.186 and the “logFC FAM83D (transcript TC2000007341.hg.1)” value [1] was -1.0787. For the same compound, the “logFC FBXO32 (transcript TC0800011683.hg.1)” value [1] was -1.239, the “logFC FHL2 (transcript TC0200013750.hg.1)” value [1] was -1.323 and the “logFC GYG1 (transcript TC0300009126.hg.1)” value [1] was -0.8272. For the same compound, the “logFC H2AFY2 (transcript TC1000007913.hg.1)” value [1] was -1.438, the “logFC HGSNAT (transcript TC0800007460.hg.1)” value [1] was -1.179 and the “logFC HIST1H1E (transcript TC0600007273.hg.1)” value [1] was -0.9296. For the same compound, the “logFC HIST1H2AK (transcript TC0600011228.hg.1)” value [1] was -1.094, the “logFC HIST1H3G (transcript TC0600011142.hg.1)” value [1] was -1.091 and the “logFC HIST2H2AB (transcript TC0100015711.hg.1)” value [1] was -1.264. The “logFC HMGB2 (transcript TC0400012432.hg.1)” value [1] was -1.248, the “logFC HNF4G (transcript TC0800008002.hg.1)” value [1] was -1.665 and the “logFC HOXB6 (transcript TC1700012433.hg.1)” value [1] was -0.9482. For the same compound, the “logFC HOXB7 (transcript TC1700012434.hg.1)” value [1] was -1.178, the “logFC HSF2BP (transcript TC2100008306.hg.1)” value [1] was -1.094 and the “logFC KAT7 (transcript TC1700008216.hg.1)” value [1] was -0.9549. For the same compound, the “logFC KIF15 (transcript TSUnmapped00000127.hg.1)” value [1] was -1.52, the “logFC KIF15 (transcript TSUnmapped00000190.hg.1)” value [1] was -1.209 and the “logFC KIF15 (transcript TSUnmapped00000242.hg.1)” value [1] was -1.3548. The “logFC KPNA2 (transcript TC1700008719.hg.1)” value [1] was -0.848, the “logFC KRTCAP2 (transcript TC0100018498.hg.1)” value [1] was -0.9489 and the “logFC LOXL1 (transcript TC1500007829.hg.1)” value [1] was -1.906. For the same compound, the “logFC LRRC41 (transcript TC0100014050.hg.1)” value [1] was -1.4599, the “logFC MCPH1 (transcript TC0800006557.hg.1)” value [1] was -1.179 and the “logFC MRPL15 (transcript TC0800007653.hg.1)” value [1] was -1.399. The “logFC MSRA (transcript TC0800006697.hg.1)” value [1] was -0.9684, the “logFC MYBL2 (transcript TC2000007438.hg.1)” value [1] was -1.297 and the “logFC NCAPG2 (transcript TC0700013290.hg.1)” value [1] was -1.083. For the same compound, the “logFC NFKB1 (transcript TC0400008271.hg.1)” value [1] was -1.316, the “logFC NQO1 (transcript TC1600010732.hg.1)” value [1] was -1.465 and the “logFC PKNOX1 (transcript TC2100007278.hg.1)” value [1] was -1.264. For the same compound, the “logFC PRRC2A (transcript TC0600007599.hg.1)” value [1] was -0.9194, the “logFC PTPRE (transcript TC1000009296.hg.1)” value [1] was -0.9151 and the “logFC PTRHD1 (transcript TC0200011990.hg.1)” value [1] was -0.8388. For the same compound, the “logFC RHNO1 (transcript TC1200012573.hg.1)” value [1] was -1.078, the “logFC RUNX2 (transcript TC0600008146.hg.1)” value [1] was -1.088 and the “logFC SAMD9L (transcript TC0700011797.hg.1)” value [1] was -1.884. The “logFC SCG2 (transcript TC0200015865.hg.1)” value [1] was -0.9206, the “logFC SLC47A2 (transcript TC1700010035.hg.1)” value [1] was -1.04 and the “logFC SMARCB1 (transcript TC2200006862.hg.1)” value [1] was -1.487. The “logFC TAPBP (transcript TC0600011536.hg.1)” value [1] was -0.9356, the “logFC TAS2R13 (transcript TC1200009921.hg.1)” value [1] was -1.256 and the “logFC TFDP1 (transcript TC1300008144.hg.1)” value [1] was -0.8938. The “logFC TK2 (transcript TC1600011551.hg.1)” value [1] was -1.009 and the “logFC TNFRSF12A (transcript TC1600006652.hg.1)” value [1] was -0.9964.
